Experimental data reported in patent US12583939B2, “Bispecific antigen binding molecules that bind HER2, and methods of use thereof” (Regeneron Pharmaceuticals, Inc., priority 2020, dated 2026).

What was measured:
T47D cells [1] = experiment: Internalization and cluster formation, 3D spheroids; format: cell-based; settings: 3D Spheroids (SD55); 10 ug/mL
Protocol: (§1) For 2D monolayer assays, T47D cells were plated on collagen-coated 96-well optical plates (Greiner, Cat #655936) at 25,000 cells/well in complete media and incubated overnight at 37° C. in 5% CO2. For 3D spheroids, cells were plated in low adhesion 96-well plates (Corning #4515) at 10,000 cells/well and incubated for 72 hours. The day of the assay, cells were incubated for 30 minutes with cold (4° C.) media containing 10 ug/mL of Alexa647 (Thermo, Cat #A37573) labeled antibodies. After, cells were washed twice (5 minutes, 100 ul, 4° C., complete medium) and incubated in complete media at 37° C. for 60 minutes. Cells were incubated for 30 minutes with cold (4° C.) media containing 4 ug/mL of Alexa488 anti-Human Fab (Jackson #109-547-003). […] After, the solution was replaced with PBS. Images were acquired with a Zeiss Spinning Disc Confocal Microscope and analyzed using Zeiss Zen Blue software. Quantification of the number of intracellular vesicles and surface clusters was performed in single confocal sections of representative images.

T47D cells [2] = experiment: Internalization and cluster formation, 2D monolayers; format: cell-based; settings: 2D monolayers (SD53); 10 ug/mL
Protocol: as §1

hErbB2-MMH = molecular target: T1, hErbB2-MMH (Homo sapiens, UniProt P04626); experiment: Surface plasmon resonance binding kinetics at 25° C.
T1 construct: myc-myc-hexahistidine (C); made in house
Protocol: Equilibrium dissociation constants (KD values) for hErbB2.mmh binding to anti-HER2×HER2 antibodies conjugated with either M830 or M1 were determined using a real-time surface plasmon resonance biosensor assay on a MASS-2 instrument. The MASS-2 sensor surface was derivatized by amine coupling with a monoclonal mouse anti-human Fc antibody (REGN2567) to capture anti-HER2×HER2 ADC and parent unmodified antibodies expressed with human constant regions. […] Human hErbB2 was prepared in-house expressing a C-terminal myc-myc-hexahistidine tag (hErbB2-MMH). […] Association of hErbB2-MMH to each of the captured ADCs and monoclonal antibodies was monitored for 3 minutes. Subsequently, hErbB2-MMH dissociation was monitored for 10 minutes in HBS-EP running buffer. Anti-human Fc surface was regenerated by a brief injection of 20 mM H3PO4. All binding kinetic experiments were performed at 25° C.
Kinetic association (ka) and dissociation (kd) rate constants were determined by fitting the real-time sensorgrams to a 1:1 binding model using Scrubber 2.0c curve fitting software. All sensorgrams were double referenced by subtracting buffer injection sensorgram signal from the corresponding analyte sensorgram, thereby removing artifacts caused by dissociation of the antibody from the capture surface. Binding dissociation equilibrium constants (KD) and dissociative half-lives (t½) were calculated from the kinetic rate constants as: […]

Antigen Bound (hErbB2-MMH): 177.8 RU | ka (hErbB2-MMH): 290000 M⁻¹ s⁻¹ | kd (hErbB2-MMH): ≤1e-05 s⁻¹
Substance: CompAb2: parental HER2×HER2 bispecific antibody of MEDI4276 (SEQ ID NO: 52 and 53) [reference compound]
Cluster % (T47D cells [1]): 41% | Internalized Vesicles % (T47D cells [1]): 100% | Cluster % (T47D cells [2]): 28% | Internalized Vesicles % (T47D cells [2]): 100%
